Results reported in the NIST ThermoML archive (doi:10.1021/je060271a).

Conditions: 283.14 K, Liquid, Vibrating tube method

CCCCCCC(=O)OCC(COC(=O)CCCCCC)(COC(=O)CCCCCC)COC(=O)CCCCCC [pentaerythritol tetraheptanoate]
Conditions | mass density [kg/m3]
13797 kPa | 993.7
13815 kPa | 993.7
13832 kPa | 993.7
13850 kPa | 993.7
13872 kPa | 993.7
13889 kPa | 993.7
13907 kPa | 993.7
13928 kPa | 993.7
13946 kPa | 993.7
13964 kPa | 993.7
13985 kPa | 993.7
14003 kPa | 993.7
14021 kPa | 993.7
14043 kPa | 993.7
14061 kPa | 993.8
14079 kPa | 993.9
14098 kPa | 993.8
14120 kPa | 993.8
14138 kPa | 993.9
14160 kPa | 993.9
14178 kPa | 993.9
14197 kPa | 993.9
14216 kPa | 993.8
14238 kPa | 993.9
14256 kPa | 993.9
14278 kPa | 993.9
14297 kPa | 993.9
14316 kPa | 993.9
14339 kPa | 994
14358 kPa | 994
14377 kPa | 993.9
14396 kPa | 993.9
14419 kPa | 993.9
14438 kPa | 994
14458 kPa | 994
14480 kPa | 994
14500 kPa | 994
14523 kPa | 994
14542 kPa | 994.1
14561 kPa | 994
14585 kPa | 994.1
14605 kPa | 994.1
14625 kPa | 994.1
14645 kPa | 994
14668 kPa | 994.1
14688 kPa | 994.1
14708 kPa | 994.1
14733 kPa | 994.2
14752 kPa | 994.2
14772 kPa | 994.3
14797 kPa | 994
14817 kPa | 994.3
14838 kPa | 994.2
14863 kPa | 994.2
14884 kPa | 994.2
14905 kPa | 994.2
14926 kPa | 994.3
14946 kPa | 994.2
14971 kPa | 994.3
14991 kPa | 994.2
15016 kPa | 994.3
15037 kPa | 994.2
15057 kPa | 994.4
15083 kPa | 994.4
15104 kPa | 994.4
15125 kPa | 994.4
15151 kPa | 994.5
15173 kPa | 994.4
15194 kPa | 994.3
15216 kPa | 994.4
15242 kPa | 994.5
15263 kPa | 994.4
15285 kPa | 994.5
15310 kPa | 994.4
15332 kPa | 994.4
15354 kPa | 994.5
15567 kPa | 994.5
15589 kPa | 994.5
15616 kPa | 994.6
15638 kPa | 994.6
15661 kPa | 994.7
15689 kPa | 994.7
15711 kPa | 994.7
15734 kPa | 994.7
15762 kPa | 994.7
15785 kPa | 994.6
15808 kPa | 994.8
15836 kPa | 994.7
15860 kPa | 994.8
15883 kPa | 994.8
15911 kPa | 994.9
15934 kPa | 994.7
15958 kPa | 994.8
15982 kPa | 994.8
16010 kPa | 994.9
16034 kPa | 994.8
16062 kPa | 995
16087 kPa | 995
16111 kPa | 994.9
16139 kPa | 994.9
16164 kPa | 994.9
16188 kPa | 994.8
16212 kPa | 994.9
16242 kPa | 994.9
16266 kPa | 995.1
16291 kPa | 994.9
16321 kPa | 994.9
16345 kPa | 995
16375 kPa | 995
16400 kPa | 995
16425 kPa | 995.1
16450 kPa | 995.1
16481 kPa | 995
16506 kPa | 995.1
16531 kPa | 995.1
16587 kPa | 995.1
16617 kPa | 995.2
16669 kPa | 995.1
16725 kPa | 995.2
16752 kPa | 995.2
16779 kPa | 995.3
16810 kPa | 995.3
16836 kPa | 995.2
16868 kPa | 995.2
16894 kPa | 995.4
16921 kPa | 995.3
16953 kPa | 995.3
16980 kPa | 995.4
17007 kPa | 995.4
17035 kPa | 995.4
17068 kPa | 995.4
17095 kPa | 995.5
17124 kPa | 995.4
17152 kPa | 995.4
17180 kPa | 995.5
17214 kPa | 995.3
17241 kPa | 995.5
17269 kPa | 995.5
17363 kPa | 995.5
17449 kPa | 995.6
17484 kPa | 995.7
17513 kPa | 995.5
17543 kPa | 995.7
17572 kPa | 995.6
17607 kPa | 995.7
17636 kPa | 995.8
17666 kPa | 995.6
17700 kPa | 995.7
17729 kPa | 995.8
17759 kPa | 995.8
17794 kPa | 995.8
17824 kPa | 995.7
17854 kPa | 995.8
17890 kPa | 995.9
17920 kPa | 995.8
17950 kPa | 995.9
17986 kPa | 995.8
18017 kPa | 995.9
18048 kPa | 996
18085 kPa | 995.9
18116 kPa | 995.9
18147 kPa | 995.9
18184 kPa | 995.9
18215 kPa | 996
18247 kPa | 996
18278 kPa | 996
18316 kPa | 995.9
18348 kPa | 996
18380 kPa | 996.1
18419 kPa | 996.1
18450 kPa | 996.2
18489 kPa | 996.2
18522 kPa | 996.1
18554 kPa | 996.1
18586 kPa | 996.1
18625 kPa | 996.3
18658 kPa | 996.3
18697 kPa | 996.3
18731 kPa | 996.2
18764 kPa | 996.3
18805 kPa | 996.3
18839 kPa | 996.3
18873 kPa | 996.3
18908 kPa | 996.4
18950 kPa | 996.4
18986 kPa | 996.4
19030 kPa | 996.4
19067 kPa | 996.3
19105 kPa | 996.5
19144 kPa | 996.5
19165 kPa | 996.5
19176 kPa | 996.5
19199 kPa | 996.5
19220 kPa | 996.4
19241 kPa | 996.6
19262 kPa | 996.5
19288 kPa | 996.7
19308 kPa | 996.5
19333 kPa | 996.6
19354 kPa | 996.5
19376 kPa | 996.7
19396 kPa | 996.7
19422 kPa | 996.6
19443 kPa | 996.8
19465 kPa | 996.7
19491 kPa | 996.7
19512 kPa | 996.7
19538 kPa | 996.8
19560 kPa | 996.7
19582 kPa | 996.6
19604 kPa | 996.8
19630 kPa | 996.7
19652 kPa | 996.7
19675 kPa | 996.7
19697 kPa | 996.7
19746 kPa | 996.8
19769 kPa | 996.8
19796 kPa | 996.9
19818 kPa | 996.8
19841 kPa | 996.8
19863 kPa | 996.9
19890 kPa | 996.9
19912 kPa | 996.9
